In ChEMBL document CHEMBL5137017, “Identification of NVP-CLR457 as an Orally Bioavailable Non-CNS-Penetrant pan-Class IA Phosphoinositol-3-Kinase Inhibitor” (J Med Chem, 2022):

Assays:
[1] = molecular target: Serine/threonine-protein kinase mTOR (Homo sapiens, UniProt P42345); assay: Displacement of Alexa Fluor labelled Tracer-314 from human N-terminal GST-tagged mTOR incubated for 1 hr by TR-FRET assay
[2] = Brain to blood ratio in OF1 mouse at 1 mg/kg, iv measured at 5 mins post dose by LC-MS/MS analysis; format: ADME, organism-based; conditions: brain and blood, read-out: BBR
[3] = Stability in mouse liver microsomes assessed as hepatic extraction preincubated for 3 mins followed by NADPH addition and measured after 60 mins; format: ADME, Microsome; conditions: time 63 min, read-out: ERH
[4] = Stability in rat liver microsomes assessed as hepatic extraction preincubated for 3 mins followed by NADPH addition and measured after 60 mins; format: ADME, Microsome; conditions: read-out: ERH
[5] = AUC in Sprague-Dawley rat at 1 mg/kg, iv measured for 0.083 to 48 hrs by LC-MS/MS analysis; format: ADME, organism-based; design: time upper 48 hrs, dose 1 mg/kg, time lower 0.083 hrs, route iv; conditions: in vivo
[6] = molecular target: Phosphatidylinositol 4,5-bisphosphate 3-kinase catalytic subunit alpha isoform (Homo sapiens, UniProt P42336); assay: Inhibition of PI3Kalpha (unknown origin) using L-alpha-phosphatidylinositol as substrate in presence of ATP by Kinase Glo luminescence assay
Phosphatidylinositol 4,5-bisphosphate 3-kinase catalytic subunit alpha isoform, sequence (P42336 whole entry, canonical isoform): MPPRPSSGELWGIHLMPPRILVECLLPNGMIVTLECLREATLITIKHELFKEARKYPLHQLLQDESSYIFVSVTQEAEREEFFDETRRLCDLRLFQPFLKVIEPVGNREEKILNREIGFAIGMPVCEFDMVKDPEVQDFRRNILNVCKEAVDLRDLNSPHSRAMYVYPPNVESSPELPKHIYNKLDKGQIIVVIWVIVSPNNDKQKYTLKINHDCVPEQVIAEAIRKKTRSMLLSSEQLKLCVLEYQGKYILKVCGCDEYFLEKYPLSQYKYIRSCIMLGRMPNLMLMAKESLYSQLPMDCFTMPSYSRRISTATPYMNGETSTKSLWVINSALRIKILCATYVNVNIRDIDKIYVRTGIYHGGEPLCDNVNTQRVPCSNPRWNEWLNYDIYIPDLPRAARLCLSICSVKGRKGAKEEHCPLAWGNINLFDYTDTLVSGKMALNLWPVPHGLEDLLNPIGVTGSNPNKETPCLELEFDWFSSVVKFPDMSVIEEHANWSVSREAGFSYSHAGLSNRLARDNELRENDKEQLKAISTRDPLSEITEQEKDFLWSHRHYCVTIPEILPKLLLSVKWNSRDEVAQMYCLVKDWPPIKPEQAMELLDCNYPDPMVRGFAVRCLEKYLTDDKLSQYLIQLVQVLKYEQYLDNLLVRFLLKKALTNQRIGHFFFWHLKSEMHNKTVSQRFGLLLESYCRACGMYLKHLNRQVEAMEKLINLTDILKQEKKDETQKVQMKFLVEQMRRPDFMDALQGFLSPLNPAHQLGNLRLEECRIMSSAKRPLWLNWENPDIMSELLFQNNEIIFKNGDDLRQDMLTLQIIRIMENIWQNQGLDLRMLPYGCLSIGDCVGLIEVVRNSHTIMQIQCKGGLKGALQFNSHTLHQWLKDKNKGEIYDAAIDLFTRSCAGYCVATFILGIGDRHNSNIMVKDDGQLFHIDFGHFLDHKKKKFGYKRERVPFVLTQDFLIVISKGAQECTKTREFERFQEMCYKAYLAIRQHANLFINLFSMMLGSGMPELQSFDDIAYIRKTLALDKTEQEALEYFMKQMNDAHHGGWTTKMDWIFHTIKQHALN

[7] = molecular target: Phosphatidylinositol 4,5-bisphosphate 3-kinase catalytic subunit gamma isoform (Homo sapiens, UniProt P48736); assay: Inhibition of PI3Kgamma (unknown origin) using phosphatidylinositol 4,5-bisphosphate as substrate measured for 15 to 60 mins by TR-FRET based Adapta universal kinase assay
Phosphatidylinositol 4,5-bisphosphate 3-kinase catalytic subunit gamma isoform, sequence (P48736 whole entry, canonical isoform): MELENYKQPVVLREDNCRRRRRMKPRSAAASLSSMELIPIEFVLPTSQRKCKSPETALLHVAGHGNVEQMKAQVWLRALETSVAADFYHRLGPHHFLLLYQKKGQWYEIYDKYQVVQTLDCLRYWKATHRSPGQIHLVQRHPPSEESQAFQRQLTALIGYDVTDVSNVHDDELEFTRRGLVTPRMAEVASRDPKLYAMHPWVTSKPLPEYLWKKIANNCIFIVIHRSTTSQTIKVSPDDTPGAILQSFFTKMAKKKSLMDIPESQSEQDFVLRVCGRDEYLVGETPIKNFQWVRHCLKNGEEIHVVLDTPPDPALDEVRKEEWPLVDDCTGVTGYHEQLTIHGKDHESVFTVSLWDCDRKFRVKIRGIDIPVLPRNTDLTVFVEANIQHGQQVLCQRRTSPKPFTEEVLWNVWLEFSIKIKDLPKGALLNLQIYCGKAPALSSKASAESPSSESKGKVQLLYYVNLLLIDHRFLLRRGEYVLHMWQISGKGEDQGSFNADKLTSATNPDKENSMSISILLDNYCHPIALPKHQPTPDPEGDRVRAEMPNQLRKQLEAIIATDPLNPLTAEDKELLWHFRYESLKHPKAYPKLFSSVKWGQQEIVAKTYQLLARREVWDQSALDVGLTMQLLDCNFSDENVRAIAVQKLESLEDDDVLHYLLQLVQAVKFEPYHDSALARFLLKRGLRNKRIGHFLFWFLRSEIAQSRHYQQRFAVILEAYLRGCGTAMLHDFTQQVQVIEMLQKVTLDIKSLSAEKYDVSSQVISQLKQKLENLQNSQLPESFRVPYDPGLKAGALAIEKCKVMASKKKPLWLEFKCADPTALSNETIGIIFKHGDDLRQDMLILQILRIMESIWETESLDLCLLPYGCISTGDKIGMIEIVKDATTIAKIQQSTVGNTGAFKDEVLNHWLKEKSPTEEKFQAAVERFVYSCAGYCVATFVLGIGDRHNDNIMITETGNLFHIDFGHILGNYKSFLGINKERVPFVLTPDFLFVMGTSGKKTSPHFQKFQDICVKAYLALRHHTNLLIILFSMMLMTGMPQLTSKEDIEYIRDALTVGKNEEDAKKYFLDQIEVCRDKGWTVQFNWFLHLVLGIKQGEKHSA

[8] = Inhibition of wild type PI3K in human HCC1143 cells assessed as reduction in phosphorylation of AKT at Ser473 residue by Western blot analysis; format: cell-based
[9] = Minimal apparent permeability across apical to basolateral side in human Caco-2 cells at 0.25 to 30 uM measured after 120 mins by LC-MS/MS analysis; format: ADME, cell-based; conditions: dose 0.25-30 µM
[10] = Inhibition of PI3K PTEN mutant in human HCC1395 cells assessed as reduction in phosphorylation of AKT at Ser473 residue by Western blot analysis; format: cell-based
[11] = Inhibition of PI3K PTEN mutant in human BT-549 cells assessed as reduction in phosphorylation of AKT at Ser473 residue by Western blot analysis; format: cell-based
[12] = Inhibition of PI3K PTEN mutant in human HCC70 cells assessed as reduction in phosphorylation of AKT at Ser473 residue by Western blot analysis; format: cell-based
[13] = Volume of distribution at steady state in beagle dog at 0.3 mg/kg,po or 0.1 mg/kg,iv measured upto 24 hrs by LC-MS/MS analysis; format: ADME, organism-based, Canis lupus familiaris; conditions: in vivo
[14] = Dose normalized AUC in OF1 mouse plasma at 3 mg/kg, iv measured upto 24 hrs by LC-MS/MS analysis; format: ADME, organism-based; conditions: in vivo
[15] = Oral bioavailability in OF1 mouse plasma at 10 mg/kg measured upto 24 hrs by LC-MS/MS analysis; format: ADME, organism-based
[16] = Oral bioavailability in beagle dog at 0.3 mg/kg measured upto 24 hrs by LC-MS/MS analysis; format: ADME, organism-based, Canis lupus familiaris; conditions: in vivo
[17] = Tmax in OF1 mouse at 10 mg/kg,po or 3 mg/kg,iv measured upto 24 hrs by LC-MS/MS analysis; format: ADME, organism-based; conditions: in vivo
[18] = Tmax in beagle dog at 0.3 mg/kg,po or 0.1 mg/kg,iv measured upto 24 hrs by LC-MS/MS analysis; format: ADME, organism-based, Canis lupus familiaris; conditions: in vivo
[19] = Dose normalized Cmax in beagle dog at 0.3 mg/kg, po measured upto 24 hrs by LC-MS/MS analysis; format: ADME, organism-based, Canis lupus familiaris; conditions: in vivo
[20] = Dose normalized Cmax in beagle dog at 3 mg/kg, po measured upto 24 hrs by LC-MS/MS analysis; format: ADME, organism-based, Canis lupus familiaris; conditions: in vivo
[21] = Tmax in Sprague-Dawley rat at 3 mg/kg, po measured upto 24 hrs by LC-MS/MS analysis; format: ADME, organism-based; conditions: in vivo
[22] = Tmax in beagle dog at 3 mg/kg, po measured upto 24 hrs by LC-MS/MS analysis; format: ADME, organism-based, Canis lupus familiaris; conditions: in vivo
[23] = Cmax in Beagle dog at 5.4 mg/kg, po measured upto 24 hrs using PVP-ASD form of sample by LC-MS/MS analysis; format: ADME, organism-based, Canis lupus familiaris; design: dose 5.4 mg/kg, time < 24 hrs, route po; conditions: in vivo
[24] = Tmax in Beagle dog at 5.4 mg/kg, po measured upto 24 hrs using PVP-ASD form of sample by LC-MS/MS analysis; format: ADME, organism-based, Canis lupus familiaris; conditions: in vivo
[25] = Apparent permeability across apical to basolateral side in human Caco-2 cells at 10 uM measured after 120 mins by LC-MS/MS analysis; format: ADME, cell-based
[26] = In vivo Inhibition of AKT phosphorylation at Ser473 residue in athymic nude mouse xenografted with rat Rat1-myr-p110alpha cells at 20 mg/kg, po qd measured after 14 hrs; format: functional
[27] = Toxicity in athymic nude mouse xenografted with rat Rat1 cells expressing myr-p110alpha assessed as body weight change at 20 mg/kg,po qd measured after 14 to 22 days; format: organism-based; conditions: in vivo, time 14-22 day
[28] = Toxicity in athymic nude mouse xenografted with rat Rat1 cells expressing myr-p110alpha assessed as decrease in body weight at 40 mg/kg, po bid measured after 9 days; format: organism-based; conditions: in vivo, 216 h, time 9 day
[29] = Effect on plasma insulin level in athymic nude mouse xenografted with rat Rat1 cells expressing myr-p110alpha at 3 mg/kg, po qd measured upto 14 hrs by glucometer analysis; format: toxicity, organism-based; conditions: in vivo
[30] = Toxicity in athymic nude mouse xenografted with human HBRX2524 cells assessed as change in body weight at 40 mg/kg, po qd measured upto 16 days; format: organism-based; conditions: in vivo, 384 h, time < 16 day
[31] = Cmax in athymic nude mouse xenografted with rat Rat1 cells expressing myr-p110alpha at 10 mg/kg, po measured after 8 days by LC-MS/MS analysis; format: ADME, organism-based; design: dose 10 mg/kg, time 8 day, route po; conditions: in vivo
[32] = Tlast in athymic nude mouse xenografted with rat Rat1 cells expressing myr-p110alpha at 3 mg/kg, po measured after 8 days by LC-MS/MS analysis; format: ADME, organism-based; conditions: in vivo, 192 h, time 8 day
[33] = Tlast in athymic nude mouse xenografted with rat Rat1 cells expressing myr-p110alpha at 20 mg/kg, po measured after 8 days by LC-MS/MS analysis; format: ADME, organism-based; conditions: in vivo, 192 h, time 8 day
[34] = Tlast in athymic nude mouse xenografted with rat Rat1 cells expressing myr-p110alpha at 40 mg/kg, po measured after 8 days by LC-MS/MS analysis; format: ADME, organism-based; conditions: in vivo, 192 h, time 8 day
[35] = AUC(0 to Tlast) in athymic nude mouse xenografted with rat Rat1 cells expressing myr-p110alpha at 10 mg/kg, po measured after 8 days by LC-MS/MS analysis; format: ADME, organism-based; design: time 8 day, dose 10 mg/kg, route po; conditions: in vivo
[36] = AUC(0 to Tlast) in athymic nude mouse xenografted with rat Rat1 cells expressing myr-p110alpha at 40 mg/kg, po measured after 8 days by LC-MS/MS analysis; format: ADME, organism-based; design: time 8 day, dose 40 mg/kg, route po; conditions: in vivo
[37] = Dose normalized AUC(0 to Tlast) in athymic nude mouse xenografted with rat Rat1 cells expressing myr-p110alpha at 3 mg/kg, po measured after 8 days by LC-MS/MS analysis; format: ADME, organism-based; conditions: in vivo, 192 h, time 8 day
[38] = Dose normalized AUC(0 to Tlast) in athymic nude mouse xenografted with rat Rat1 cells expressing myr-p110alpha at 20 mg/kg, po measured after 8 days by LC-MS/MS analysis; format: ADME, organism-based; conditions: in vivo, 192 h, time 8 day

IC50 [1]: 2470 nM | Kp at 5 min [2]: 0.02 | hepatic extraction ratio at 1 h [3]: 0.34 | hepatic extraction ratio at 1 h [4]: 0.35 | AUC [5]: 1.77 µM·h | IC50 [6]: 12 nM | IC50 [7]: 230 nM | IC50 [8]: 26 nM | Papp A→B at 2 h, up to 30 µM [9]: 2.5 ×10⁻⁶ cm/s | IC50 [10]: 169 nM | IC50 [11]: 99 nM | Vdss [13]: 1.5 L/kg | AUC/dose [14]: 3580 nM·h | bioavailability [15]: 49% | bioavailability [16]: 98% | Tmax [17]: 0.5 h | Tmax [18]: 1.3 h | Cmax/dose [19]: 1121 nM | Cmax/dose [20]: 309 nM | Tmax [21]: 0.5 h | Tmax [22]: 2 h | Cmax [23]: 10700 nM | Tmax [24]: 2 h | Papp A→B at 2 h, 10 µM [25]: 8.9 ×10⁻⁶ cm/s | Cmax [31]: 2280 nM | Tlast [32]: 14 h | Tlast [33]: 14 h | Tlast [34]: 24 h | AUC(0-t) at 192 h [35]: 16 µM·h | AUC(0-t) at 192 h [36]: 54 µM·h | AUC/dose [37]: 1.82 µM·h | AUC/dose [38]: 1.28 µM·h
SMILES: C[C@H]1OC(=O)N(c2nc(-c3cnc(N)nc3C(F)(F)F)cc(N3CCOCC3)n2)[C@H]1CO
IC50 [12]: 56 nM | inhibition in vivo at 20 mg/kg [26]: 76% | Activity [27]: Non-Toxic | Activity [28]: Toxic | Activity [29]: Non-Toxic | Activity [30]: Non-Toxic
